Earlier results on one compound are cited in patent US20250009900A1, “OXAZAPHOSPHORINE ANTIBODY DRUG CONJUGATES AND METHODS OF USE” (LA Life Products, LLC, priority 2023, published 2025).

For this data set the following is noted: combination with ipilimumab (anti-CTLA-4), in the clinic; cited from earlier work.

For `Cn1c(COP(=O)(NCCBr)NCCBr)cnc1[N+](=O)[O-]` [evofosfamide], the “good clinical activity (patients)” value was 15 of 22.
